Reference: patent US20050171014A1, “Conjugates of ligand linker and cytotoxic agent and related composition and methods of use” (Government of the United States of America, represented by …, priority 2003, published 2005)
Starred links: 1 amine or outer side, 2 acyl side, 3 side chain; linkers in the order of their positions; H or OH if unused. Non-standard residues stand in square brackets, D forms with d. Residues, ends and D or L forms follow the SMILES beside them. NMePhe(β,β-Me2) = CN[C@H](C(=O)O)C(C)(C)c1ccccc1; X1 = C/C(=C\[C@H](C(C)C)N(C)[*:1])C(=O)[*:2]; Tle = CC(C)(C)[C@H](N)C(=O)O; Nle = CCCC[C@H](N)C(=O)O

How the values were obtained:
[1] = system: gastrin receptor-expressing 3T3 cells; assay type: cell-based; settings: methods of Example 7
Experimental: Isogenic cell lines, one transfected with the target cell surface receptor and the parent cell line without detectable receptor expression, were used for determination of selective activity of toxin conjugates. Transfection of NIH/3T3, CHO and HeLa cells (American Type Culture Collection, Manassas, Va.) with gastrin receptor cDNA (prepared as described in Tarasova et al., J. Biol. Chem. 272: 14817-14824 (1997)) was performed as described (Tarasova et al., J Biol. Chem. 272(23): 14817-14824 (1997)). For the tests, the cells were seeded in 96-well plates at a density of 500-1000 cells per well and allowed to attach for 24 hours. The compounds were added to the cells at concentrations ranging from 10 pM to 10 μM and the cells were grown in a CO2 incubator in the presence of compounds for 4-5 days. The cell number was estimated with either the methylthiazolyldiphenyl-tetrazolium bromide (MTT) assay (Alley et al., Cancer Res. 48(3): 589-601 (1988)) or sulforhodamine assay as described in Skehan et al., J. Natl. Cancer Inst. 82(13): 1107-1112 (1990)).

[2] = system: cathepsin B and cathespin D

CCCC[C@H](NC(=O)[C@H](Cc1c[nH]c2ccccc12)NC(=O)CNC(=O)[C@H](Cc1ccc(O)cc1)NC(=O)[C@H](C)NC(=O)[C@H](CCC(=O)O)NC(=O)[C@H](CCC(=O)O)NC(=O)[C@H](CCC(=O)O)NC(=O)[C@H](C)NC(=O)[C@H](CC(C)C)NC(=O)[C@H](C)NC(=O)[C@H](CC(C)C)NC(=O)[C@@H](NC(=O)/C(C)=C/[C@H](C(C)C)N(C)C(=O)[C@@H](NC(=O)[C@@H](NC)C(C)(C)c1ccccc1)C(C)(C)C)C(C)C)C(=O)N[C@@H](CC(=O)O)C(=O)N[C@@H](Cc1ccccc1)C(N)=O (H-[NMePhe(β,β-Me2)][Tle][X1]VLALAEEEAYGW[Nle]DF-NH2)
IC50 [1]: 1000 nM
products of hydrolysis by lysosomal proteases [2]: generated mostly pentapeptide or SPA110 extended by Val-Leu on the C-terminus
